Laboratory results taken from US20250368606A1, “CRYSTALLINE FORMS AND SALT FORMS OF A KINASE INHIBITOR” (Exelixis, Inc., priority 2021, published 2025).

Legend:
Format in all cases: physicochemical
[1] = Desolvation / drying attempts at elevated temperature, solids analysed by XRPD
Procedure: Vacuum Oven Desolvation: Salts of Compound 1 that were determined to be solvates by various analytical methods underwent an attempted desolvation. […] Samples were analyzed by XRPD and/or TGA for determination of desolvation success.

[2] = Physical stability (form conversion) of solid forms
[3] = Visual (aqueous) solubility estimation; settings: water, thermodynamic from solid, visual observation
Procedure: Solubility Estimation: Aliquots of various solvents were added to measured amounts of Compound 1 with agitation (typically sonication) at stated temperatures until complete dissolution was achieved, as judged by visual observation.
Aqueous Solubility Estimation: Aliquots of water were added to measured amounts of various Compound 1 salts with sonication.

[4] = dried under vacuum at 80° C. for 1 day

CNC(=O)c1cc2c(Oc3ccc(NC(=O)C4(C(=O)Nc5ccc(F)cc5)CC4)cc3)ccnc2cc1OC [Hemifumarate Form E]
form of post-drying solids (XRPD) ([1]; dried under vacuum at 72° C. for 1 day): unique disordered crystalline pattern

CNC(=O)c1cc2c(Oc3ccc(NC(=O)C4(C(=O)Nc5ccc(F)cc5)CC4)cc3)ccnc2cc1OC [Compound 1 Hemifumarate Form D]
form of post-drying solids (XRPD) [1, 4]: a mixture of Compound 1 free base Form A and Compound 1 Hemifumarate Form B

CNC(=O)c1cc2c(Oc3ccc(NC(=O)C4(C(=O)Nc5ccc(F)cc5)CC4)cc3)ccnc2cc1OC [Napsylate Form A]
physical stability under drying conditions (XRPD) ([1]; 48° C. under vacuum for approximately 3 days): XRPD peaks attributed to Napsylate Form B increased in intensity | physical stability under drying conditions (XRPD) ([1]; 120° C. for 30 minutes): A mixture of Napsylate Form B and Form C

CNC(=O)c1cc2c(Oc3ccc(NC(=O)C4(C(=O)Nc5ccc(F)cc5)CC4)cc3)ccnc2cc1OC [Form R]
XRPD Results after desolvation attempt ([1]; 105-120° C. vacuum, 2 hours): Form K | XRPD Results after desolvation attempt ([1]; 110° C., 1 hour): Form K + X

CNC(=O)c1cc2c(Oc3ccc(NC(=O)C4(C(=O)Nc5ccc(F)cc5)CC4)cc3)ccnc2cc1OC [Amorphous Compound 1, N-(4-fluorophenyl)-N-(4-((7-methoxy-6-(methylcarbamoyl)quinolin-4-yl)oxy)phenyl)cyclopropane-1,1-dicarboxamide]
physical stability: resulting form on exposure to elevated temperature ([2]; elevated temperature): Material K | physical stability: resulting form on contact with diethyl ether ([2]; immediately on contact with diethyl ether): crystallized to a mixture of Forms X and K | solubility [3]: < 250 µg/mL

CNC(=O)c1cc2c(Oc3ccc(NC(=O)C4(C(=O)Nc5ccc(F)cc5)CC4)cc3)ccnc2cc1OC [Form U]
XRPD Results after desolvation attempt ([1]; 60° C.-72° C. vacuum 6 days): Form T + Form U | XRPD Results after desolvation attempt ([1]; 70° C. vacuum 3 days): Form U + Form T | XRPD Results after desolvation attempt ([1]; 105-120° C. vacuum, 2 hours): Form T (blue grey) | XRPD Results after desolvation attempt ([1]; 170° C. 15 minutes): Form T + Form A (grey brown)

CNC(=O)c1cc2c(Oc3ccc(NC(=O)C4(C(=O)Nc5ccc(F)cc5)CC4)cc3)ccnc2cc1OC [Compound 1 Hemifumarate Form C]
form of post-drying solids (XRPD) [1, 4]: a mixture of Hemifumarate Form B, with trace Compound 1 free base Form A, and a few additional peaks

CNC(=O)c1cc2c(Oc3ccc(NC(=O)C4(C(=O)Nc5ccc(F)cc5)CC4)cc3)ccnc2cc1OC [Hemifumarate Form F]
form of post-drying solids (XRPD) ([1]; post-drying sample further dried under vacuum at 88° C. for 1 day): maintained the same form

CNC(=O)c1cc2c(Oc3ccc(NC(=O)C4(C(=O)Nc5ccc(F)cc5)CC4)cc3)ccnc2cc1OC [Compound 1 Form S]
physical stability of the solvate ([2]; likely NMP solvate, only obtained as a mixture with Form A): readily converts to Form A
